3 compounds from US10231453B2, “5-substituted imidazole derivatives” (BAYER CROPSCIENCE AKTIENGESELLSCHAFT, priority 2015, dated 2019) can be followed below.

One series concerns Venturia inaequalis. In words: In vivo preventive Venturia test (apples), Example J. To be noted: 240 h, read-out: efficacy.
The subject of another series is Sphaerotheca fuliginea. Nature of the series: In vivo preventive test on Sphaerotheca fuliginea (powdery mildew on cucurbits), Examples F and R6. To be noted: Podosphaera fuliginea, 360 h; 500 ppm of active ingredient; gherkin, preventive spray, evaluated 15 days after inoculation; read-out: efficacy.
In another series the test system is Leptosphaeria nodorum. In words: In vivo preventive Leptosphaeria nodorum test (wheat), Example N. Particulars: Parastagonospora nodorum, 192 h, 500 ppm of active ingredient, preventive spray, evaluated 8 days after inoculation, read-out: efficacy. An excerpt:
After the spray coating has been dried, the plants are sprayed with a spore suspension of Leptosphaeria nodorum.

Series [1] can be described thus: Measurement of LogP values by HPLC on reversed phase columns (EEC directive 79/831 Annex V.A8). The format is physicochemical. Particulars: method [a]: LC-UV, acidic range, 0.1% formic acid in water and acetonitrile as eluent; Table 1. Here is the method: Measurement of Log P values was performed as outlined above.
For a further series, the system named is Puccinia recondita. In words: In vivo preventive test on Puccinia recondita (brown rust on wheat), Examples C and R3. Particulars: Puccinia recondita, 264 h; 500 ppm of active ingredient; wheat, preventive spray, evaluated 11 days after inoculation; read-out: efficacy.
Another series concerns Septoria tritici. Nature of the series: In vivo preventive test on Septoria tritici (leaf spot on wheat), Examples E, Q3 and R5. To be noted: Zymoseptoria tritici, 576 h, 500 ppm of active ingredient; wheat, preventive spray, evaluated 24 days after inoculation; read-out: efficacy.
The next series deals with Alternaria solani. In words: In vivo preventive Alternaria test (tomatoes), Example H. Particulars: 72 h, 100 ppm of active ingredient, preventive spray, evaluated 3 days after inoculation, read-out: efficacy.
The subject of series [2] is Blumeria graminis fsp. hordei. In words: In vivo preventive Blumeria test (barley), Example K. To be noted: 168 h, 500 ppm of active ingredient, preventive spray, evaluated 7 days after inoculation, read-out: efficacy. The text has this: After the spray coating has been dried, the plants are dusted with spores of Blumeria graminis fsp. hordei.
Another series relates to Uromyces appendiculatus. In words: In vivo preventive test on Uromyces appendiculatus (bean rust), Examples G and R7. Particulars: 264 h, 500 ppm of active ingredient, bean, preventive spray, evaluated 11 days after inoculation, read-out: efficacy.
In the next series the test system is Pyricularia oryzae. In words: whole plant or invertebrate. The format is in vivo. To be noted: 192 h, read-out: efficacy.
Series [3] concerns Fusarium nivale (var. majus). Nature of the series: In vivo preventive Fusarium nivale (var. majus) test (wheat), Example O. To be noted: Microdochium nivale, 120 h, 500 ppm of active ingredient, preventive spray, evaluated 5 days after inoculation, read-out: efficacy. An excerpt:
After the spray coating has been dried, the plants are slightly injured by using a sandblast and afterwards they are sprayed with a conidia suspension of Fusarium nivale (var. majus).

The test system of a further series is Phakopsora pachyrhizi. Nature of the series: In vivo preventive Phakopsora test (soybeans), Example I. Particulars: 168 h, 100 ppm of active ingredient, preventive spray, evaluated 7 days after inoculation, read-out: efficacy.
A further series deals with Fusarium culmorum. Nature of the series: In vivo preventive Fusarium culmorum test (wheat), Example L. To be noted: 120 h, 500 ppm of active ingredient, preventive spray, evaluated 5 days after inoculation, read-out: efficacy. Here is the method:
After the spray coating has been dried, the plants are slightly injured by using a sandblast and afterwards they are sprayed with a conidia suspension of Fusarium culmorum.
The test is evaluated 5 days after the inoculation.

The test system of the next series is Fusarium graminearum. Nature of the series: whole plant or invertebrate. Particulars: in Hordeum vulgare, 120 h, read-out: efficacy. In kind it is in vivo.
The next series concerns Pyrenophora teres. Nature of the series: In vivo preventive test on Pyrenophora teres (net blotch on barley), Examples D, Q2 and R4. To be noted: Pyrenophora teres, 336 h, 500 ppm of active ingredient, preventive spray, evaluated 14 days after inoculation, read-out: efficacy.
Another series deals with Botrytis cinerea. Nature of the series: In vivo preventive test on Botrytis cinerea (grey mould) on gherkin, Examples B, Q1 and R2. Particulars: Botrytis cinerea, 500 ppm of active ingredient, preventive spray, evaluated 4 to 5 days after inoculation, read-out: efficacy.
The next series concerns Alternaria brassicae. In words: In vivo preventive test on Alternaria brassicae (leaf spot on radish), Examples A and R1. Particulars: Alternaria brassicae, 144 h, 500 ppm of active ingredient, preventive spray, evaluated 6 days after inoculation, read-out: efficacy.

Experimental for Venturia inaequalis: After the spray coating has dried on, the plants are inoculated with an aqueous conidia suspension of the causal agent of apple scab (Venturia inaequalis) and then remain for 1 day in an incubation cabinet at approximately 20° C. and a relative atmospheric humidity of 100%.
The plants are then placed in a greenhouse at approximately 21° C. and a relative atmospheric humidity of approximately 90%.
The test is evaluated 10 days after the inoculation.

In general, chromatographic logP refers to a lipophilicity value derived from retention on a column. The low end stands for a more hydrophilic compound, the high end for a more lipophilic compound. With `N#Cc1cncn1CC(O)(Cc1cccnc1Cl)C1(Cl)CC1` (stereo not shown) [Example I-26], the pest or weed control at 100 ppm with Venturia inaequalis is 90 to 100%; in the series on Alternaria solani it was 80 to 89%; in the series on Phakopsora pachyrhizi it was 70 to 79%. Besides, the pest or weed control at 500 ppm with Sphaerotheca fuliginea lay within 90 to 100%; in the series with Leptosphaeria nodorum it was 70 to 79%; in the series on Puccinia recondita, 90 to 100%; in the series on Septoria tritici, 90 to 100%; in series [2], 90 to 100%; in the series on Uromyces appendiculatus, 90 to 100%. Also, the pest or weed control at 500 ppm in the series with Pyricularia oryzae was 80 to 89%; in series [3], 90 to 100%; in the series with Fusarium culmorum, 90 to 100%. In series [1], this compound displayed a chromatographic logP of 2.01.

Regarding `N#Cc1cncn1CC(O)(Cc1ccc(F)cc1F)C1(F)CC1` (stereo not shown) [Example I-97], the pest or weed control at 500 ppm in the series with Fusarium graminearum lay in the range of 90 to 100%; in the series on Pyrenophora teres it was 80 to 89%; with Sphaerotheca fuliginea it was 90 to 100%; with Puccinia recondita it was 90 to 100%; in the series with Septoria tritici, 90 to 100%; in series [2] it was 90 to 100%. Further, the pest or weed control at 500 ppm in the series on Uromyces appendiculatus is 90 to 100%; in the series on Pyricularia oryzae, 70 to 79%; in series [3], 90 to 100%; with Fusarium culmorum it was 90 to 100%. The values for the pest or weed control at 100 ppm with Venturia inaequalis, in the series on Alternaria solani and in the series with Phakopsora pachyrhizi were 80 to 89%, 80 to 89% and 90 to 100%, respectively. In addition, the chromatographic logP in series [1] came to 2.39.

With `N#Cc1cncn1CC(O)(Cc1ccccc1F)C1(F)CC1` (stereo not shown) [Example I-99], the pest or weed control at 500 ppm in the series on Fusarium graminearum, in the series with Pyrenophora teres, in the series with Sphaerotheca fuliginea, in the series with Leptosphaeria nodorum, in the series on Botrytis cinerea and in the series with Puccinia recondita was 90 to 100% in each case. The pest or weed control at 500 ppm in the series on Septoria tritici was 90 to 100%; in the series with Alternaria brassicae, 80 to 89%; in series [2], 90 to 100%; in the series on Uromyces appendiculatus, 90 to 100%; with Pyricularia oryzae, 80 to 89%; in series [3] it was 90 to 100%. In addition, the pest or weed control at 100 ppm with Venturia inaequalis was in the range of 80 to 89%; in the series on Alternaria solani, 90 to 100%; in the series on Phakopsora pachyrhizi, 90 to 100%. The compound also registered a chromatographic logP in series [1] of 2.01.
